Experimental data: PubChem BioAssay (NCI)
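1) Cells in 96-well plates. 2) Compound, 48 h, 5 concentrations. 3) Linear interpolation between surrounding doses. 4) Unreached endpoint = highest concentration. GI50: concentration for 50% inhibition of growth. The concentration for full growth arrest is given as TGI.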

Columns and labels:
Assay in all cases: NCI tumour cell line growth inhibition, 48 h
[1] = test system: HOP-92 NSCLC
[2] = test system: NCI-H23 lung
[3] = test system: EKVX NSCLC
[4] = test system: HCC-2998 colon
[5] = test system: ACHN renal
[6] = test system: UACC-257 melanoma
[7] = test system: K-562 leukemia
[8] = test system: T-47D breast
[9] = test system: RPMI-8226 leukemia
[10] = test system: HCT-116 colon
[11] = test system: OVCAR-4 ovarian
[12] = test system: A549 NSCLC
[13] = test system: SF-295 CNS
[14] = test system: HCT-15 colon
[15] = test system: CAKI-1 renal
[16] = test system: HT29 colon
[17] = test system: KM12 colon
[18] = test system: U251 CNS
[19] = test system: NCI-H460 lung
[20] = test system: LOX IMVI melanoma
[21] = test system: OVCAR-5 ovarian
[22] = test system: UACC-62 melanoma
[23] = test system: PC-3 prostate
[24] = test system: NCI-H226 lung
[25] = test system: SNB-19 CNS
[26] = test system: UO-31 renal
[27] = test system: SF-539 CNS
[28] = test system: M14 melanoma
[29] = test system: IGROV1 ovarian

SMILES: N#Cc1cnc2ccc(-c3cnc(N)nc3)cc2c1N1CCc2cc(F)c(Cl)cc21
- GI50 [1]: 201 nM
- TGI [1]: 1180 nM
- GI50 [2]: 1010 nM
- TGI [2]: 9.84 µM
- GI50 [3]: 496 nM
- TGI [3]: 3.95 µM
- GI50 [4]: 572 nM
- TGI [4]: 7.5 µM
- GI50 [5]: 489 nM
- TGI [5]: 11.9 µM
- GI50 [6]: 1300 nM
- TGI [6]: 6.87 µM
- GI50 [7]: 997 nM
- TGI [7]: > 100 µM
- GI50 [8]: 233 nM
- GI50 [9]: 325 nM
- TGI [9]: 3.19 µM
- GI50 [10]: 917 nM
- TGI [10]: 2640 nM
- GI50 [11]: 314 nM
- TGI [11]: 7.24 µM
- GI50 [12]: 479 nM
- TGI [12]: 13.2 µM
- GI50 [13]: 311 nM
- TGI [13]: 4.49 µM
- GI50 [14]: 385 nM
- TGI [14]: 11.5 µM
- GI50 [15]: 268 nM
- TGI [15]: 2800 nM
- GI50 [16]: 587 nM
- TGI [16]: 9.74 µM
- GI50 [17]: 773 nM
- TGI [17]: 4.18 µM
- GI50 [18]: 714 nM
- TGI [18]: 9.58 µM
- GI50 [19]: 425 nM
- TGI [19]: 11 µM
- GI50 [20]: 355 nM
- TGI [20]: 7.97 µM
- GI50 [21]: 437 nM
- TGI [21]: 11.3 µM
- GI50 [22]: 363 nM
- TGI [22]: 2600 nM
- GI50 [23]: 445 nM
- TGI [23]: 12.3 µM
- GI50 [24]: 555 nM
- TGI [24]: 11.3 µM
- GI50 [25]: 964 nM
- TGI [25]: 17.2 µM
- GI50 [26]: 142 nM
- TGI [26]: 4.64 µM
- GI50 [27]: 505 nM
- TGI [27]: 3.36 µM
- GI50 [28]: 612 nM
- TGI [28]: 8.51 µM
- GI50 [29]: 235 nM
